Results from PMC11232401, “Characterization of antimalarial activity of artemisinin-based hybrid drugs” (Antimicrobial Agents and Chemotherapy, 2024).
Where two headings read alike, the source gives them in different places.

Experiments:
[1] = tested on: Asynchronous NF54 strain of P. falciparum; experiment: Speed of drug activity (pLDH); assay type: cell-based, Plasmodium falciparum; conditions: for IC50: Plasmodium falciparum, NF54, asynchronous, mean (95% CI); for Conclusion (speed of antiparasitic activity): from IC50 at 24, 48, 72 h
Experimental: Each well of 96-well plates was filled with 100 µL drug and 100 µL culture containing asynchronous P. falciparum (NF54 strain) parasites, which were mixed to obtain a final parasitemia of 1.0% to 1.5% and 1.0% hematocrit. The plates were incubated for 24, 48, and 72 h at 37°C with a standard gas mixture. […] Parasite viability was measured using the pLDH method, and IC50 values were calculated as described above. Three independent experiments were performed using two technical replicates.
Figure S3: Speed of antiparasitic activity of hybrids (1) and (2) against CQ-sensitive NF54 strain of P. falciparum. Panel A: Representative response-concentration curves. Panel B: A table summarizing the results. Footnotes for table: ^[a] Parasite viability was accessed at each indicated time (24, 48, or 72 h) after addition of drugs. Values are the mean and 95% confidence interval of one experiment using each concentration of compounds in duplicate. Parasite viability was determined by parasite lactate dehydrogenase (pLDH) assay. DHA = dihydroartemisinin; ATO = atovaquone.

[2] = tested on: F32-TEM (ART-sensitive) strain of P. falciparum; experiment: Standard chemosensitivity assay (SYBR Green I, 48 h); assay type: cell-based; conditions: Plasmodium falciparum, F32, 48 h, read-out: IC50 (nM, mean ± SD) for P. falciparum (48 h), F32-TEM (ART-sensitive)
Experimental: Compounds were dissolved in DMSO and diluted in RPMI-1640 medium into five different concentrations (0.1–1000 nM). Each well of 96-well plates was filled with 100 µL drug at each concentration and 100 µL synchronized ring-stages of the ART-resistant strain F32-ART or its ART-susceptible twin strain F32-TEM at final parasitemia of 1% and 2% hematocrit. Plates were incubated for 48 h at 37°C and 5% CO2. The drugs were washed out in 1× phosphate-buffered saline (PBS) (Sigma-Aldrich), the plates were frozen and thawed, and then, the lysed parasites were transferred to black 96-well plates. SYBR Green I (Fisher Scientific, Illkirch, France) at a 2× concentration in a lysis buffer (20 mM TRIS base, pH 7.5, 20 mM EDTA, 0.008% wt/vol saponin, 0.08% wt/vol Triton X-100) was then added and the plates were incubated for 1 h at room temperature in the dark. Fluorescence was measured at 485 nm excitation and 528 nm emission in a VICTOR Nivo plate reader (Perkin Elmer, Waltham, USA) and the IC50s values were then calculated using Prism 7 (GraphPad, San Diego, USA).
^[a] Parasites were exposed for 48 h of incubation in the presence of drugs, then parasite viability was determined using SYBR Green I. Mean of two independent experiments. DHA = dihydroartemisinin; SD = standard deviation.

F32-ART parasites = experiment: In vitro recrudescence assay; assay type: cell-based, Plasmodium falciparum; conditions: 700 nM, 48 h exposure; for Recrudescence time in days (median; range), Recrudescence assay F32-ART: monitored up to 30 days
Experimental: (§1) Parasites were washed with RPMI-1640 medium before being placed in drug-free culture conditions with 10% human serum. Parasitemia was determined daily by Giemsa-staining of blood smears until the cultures reached their initial parasitemia, defined as the recrudescence day. […] Two independent experiments were performed ([10]).

F32-TEM parasites = experiment: In vitro recrudescence assay; assay type: cell-based, Plasmodium falciparum; conditions: 700 nM, 48 h exposure, monitored up to 30 days
Experimental: as §1

[3] = tested on: F32-ART (resistant) early ring-stage parasites; experiment: Ring-stage survival assay (RSA0-3h); assay type: cell-based, Plasmodium falciparum; conditions: 700 nM, 6 h pulse, 66 h growth
Experimental: Early ring-stage parasites (0–3 h post-invasion) of F32-ART and F32-TEM strains highly synchronized by Percoll-Sorbitol treatment were exposed to 700 nM of the drugs or 0.1% DMSO (control) for 6 h. Each drug was tested in duplicate. Parasite pellets were then washed in RPMI-1640 medium before being placed in drug-free culture conditions with 10% human serum and incubated for 66 h ([44]). Survival rates were assessed microscopically by two independent microscopists by counting the parasites in 10,000 RBCs. Three independent experiments were performed.

[4] = tested on: heme (iron II)-initiated β-hematin formation; experiment: β-hematin inhibitory activity under reducing condition (R-BHIA); assay type: biochemical; conditions: for Fold changes, IC50 (10 minutes) to IC50 (120 minutes): R-BHIA; for IC50: mean (95% CI)
Experimental: The compounds were dissolved in DMSO and diluted in DMSO to six different concentrations (1.0–32 mM). Hemin (Fe^III[PPIX]Cl) (BioXtra, Sigma-Aldrich) was first dissolved in 0.1 M NaOH and then suspended in an 80:20 vol/vol mixture of DMSO and propionate buffer (0.1 M, pH 5.6) to a stock solution at 8 mM. Reduced glutathione (GSH) was dissolved in 0.1 M NaOH and then adjusted to 10 mM using propionate buffer (0.1 M, pH 5.6). […] Then, 20 µL of the drug was added, and the plates were incubated for 2 h at 37°C. The plastic film was removed after drug incubation, 160 µL propionate buffer (1.0 M, pH 5.6) was added, and plates were incubated for 18 h at 37°C. BHIA under the oxidizing condition (O-BHIA) was prepared in parallel without adding GSH. Controls included wells without drugs and wells containing PBS 1× instead of propionate buffer. Afterward, the plates were centrifuged, the supernatant was discarded, and the pellets of β-hematin crystals were washed twice with pure DMSO and then water. The resulting β-hematin crystals were then dissolved in 200 µL 0.1 M NaOH and diluted to a 1:8 ratio. Aliquots were then transferred into a new plate and read by UV-visible absorbance at […]. Percent of BHIA was calculated in comparison to untreated wells (no drugs), and IC50 was then calculated. Two independent experiments were performed using three replicates of each drug concentration ([46]).
Figure S6: A summary of IC50 values derived from β-hematin inhibitory activity (BHIA). Footnotes for table: ^[a,b^] Values are mean and 95% confidence interval of one experiment, each concentration in triplicate. ^[a] Using heme (Fe[II]PPIX[Cl]) as a starting reagent. ^[b] Using hematin (Fe[III]PPIX[OH]) as a starting reagent. ^[c] […] CQ = chloroquine. R-BHIA = reducing β-hematin inhibitory activity. O-BHIA = oxidizing β-hematin inhibitory activity.

P. berghei-infected mice = tested on: P. berghei-infected mice; design: method as in PMID 31290221, PMID 34832911, PMID 38559731; conditions: Peters test; cited from earlier work
[5] = viability at 24 h, read-out: IC50, 24 h
[6] = viability at 48 h, read-out: IC50, 48 h
[7] = viability at 72 h, read-out: IC50, 72 h
[8] = reductive step 10 minutes, read-out: IC50 (µM) values of R-BHIA using heme (iron II), 10 minutes
[9] = reductive step 120 minutes, read-out: IC50 (µM) values of R-BHIA using heme (iron II), 120 minutes

| Structure (SMILES) | IC50 [1, 5] [nM] | IC50 [1, 6] [nM] | IC50 [1, 7] [nM] | Conclusion (speed of antiparasitic activity) [1] | IC50 [2] [nM] | Recrudescence time in days (median; range), Recrudescence assay F32-ART (F32-ART parasites) | Recrudescence time in days (median; range), Recrudescence assay F32-TEM (F32-TEM parasites) | Survival rate (%) from the RSA0-3h, F32-ART (resistant) ([3]; listed as 1) [%] | Survival rate (%) from the RSA0-3h, F32-ART (resistant) ([3]; listed as hybrid 1) [%] | Fold changes, IC50 (10 minutes) to IC50 (120 minutes) [4] | Fold changes, IC50 (10 minutes) to IC50 (120 minutes) ([4]; listed as LH70 (1)) | IC50 [4, 8] [µM] | IC50 [4, 9] [µM] | In vivo parasitemia reduction (%) (P. berghei-infected mice) | delay in recrudescence between F32-ART and F32-TEM (F32-ART parasites) [days] | Survival rate (%) from the RSA0-3h, F32-ART (resistant) ([3]; listed as 2) [%] | Survival rate (%) from the RSA0-3h, F32-ART (resistant) ([3]; listed as hybrid 2) [%] |
| --- | --- | --- | --- | --- | --- | --- | --- | --- | --- | --- | --- | --- | --- | --- | --- | --- | --- |
| COCCOCCOCCOCCn1c(-c2ccc(-n3cc(-c4ccc(OC5OC6OC7(C)CCC8C(C)CCC(C5C)C68OO7)cc4)nn3)cc2)nc2ccccc21 (stereo not shown) [Hybrid 1] | 2.4 | 3 | 2 | Fast-acting | 2.6 ± 0.6 | 11.5 (10– 13) days | > 20 (21–>30) days | 2.3 ± 0.7 | ~2 | 3 | 2.1 | 609 | 284 | > 99 |  |  |  |
| C[C@H]1[C@@H](O)O[C@@H]2O[C@@]3(C)CC[C@H]4[C@H](C)CC[C@@H]1[C@@]24OO3 [DHA, dihydroartemisinin, reference compound] | 8.3 | 2.9 | 2.7 | Fast-acting | 2 ± 0.2 | 7.5 (7–8) days | 16.5 (15–18) days |  |  |  |  | 262 | 161 |  | 8 |  |  |
| CC1CCC2C(C)C(OC(=O)CCC(=O)OCCNc3ccnc4cc(Cl)ccc34)OC3OC4(C)CCC1C32OO4 (stereo not shown) [Hybrid 2] | 9.4 | 4.3 | 5.6 | Fast-acting | 4.8 ± 1.2 | 7.5 (7–8) days | 16 (14–18) days |  |  |  |  |  |  | 89.4 ± 1.5 |  | 14.8 ± 6 | ~15 |
